Test [1] can be described thus: IC90 against starved M. tuberculosis, dose response, CFU by imaging, dry powder, 7108-04 (AID 743164). The note with it: Mycobacterium tuberculosis, starved, CFU imaging.
Test [2] deals with Mycobacterium tuberculosis, starved, CFU imaging. The description is as above.

Activity calls are given as the source filed them. The rule behind the calls is not given here. Bounds are passed on as bounds.

As for `CCOC(=O)NC(=O)c1ccsc1NC(=O)c1nc2ccccc2s1`, the result in test [1] was inactive. As for `Cn1c(NC(=O)c2ccccc2)nc2ccccc21`, in test [2], the IC90 is less than 8 µM.

Broadly, the IC90 is the point of the concentration-response curve where the effect stands at 90%.

Values taken from PubChem BioAssay AID743164 (Broad Institute, 2013).
